Laboratory results from patent US9353089B2, “Compositions and methods for the treatment of malaria” (Saint Louis University, priority 2013, dated 2016).
Read-outs that look alike come from different tables or passages of the source. Marks after values point to notes of the source that are not given here.

Key:
[1] = tested on: Plasmodium falciparum 3D7 (CQ-sensitive); test: In vitro antimalarial assay (malaria SYBR Green I-based fluorescence, MSF), 3D7; assay type: cell-based
Outline: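 Asynchronous P. falciparum 3D7 cultures (0.5% parasitemia, 2% hematocrit) were exposed to serially diluted compounds, in quadruplicate. Growth was then quantified by SYBR Green I fluorescence after adding lysis buffer containing 0.2 μL/mL dye.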

recombinant human BACE1 = recombinant human BACE1 (Homo sapiens, UniProt P56817); test: β-Secretase (BACE1) enzyme inhibition FRET assay; assay type: biochemical
recombinant human BACE1, sequence (P56817 46-501 limits assumed): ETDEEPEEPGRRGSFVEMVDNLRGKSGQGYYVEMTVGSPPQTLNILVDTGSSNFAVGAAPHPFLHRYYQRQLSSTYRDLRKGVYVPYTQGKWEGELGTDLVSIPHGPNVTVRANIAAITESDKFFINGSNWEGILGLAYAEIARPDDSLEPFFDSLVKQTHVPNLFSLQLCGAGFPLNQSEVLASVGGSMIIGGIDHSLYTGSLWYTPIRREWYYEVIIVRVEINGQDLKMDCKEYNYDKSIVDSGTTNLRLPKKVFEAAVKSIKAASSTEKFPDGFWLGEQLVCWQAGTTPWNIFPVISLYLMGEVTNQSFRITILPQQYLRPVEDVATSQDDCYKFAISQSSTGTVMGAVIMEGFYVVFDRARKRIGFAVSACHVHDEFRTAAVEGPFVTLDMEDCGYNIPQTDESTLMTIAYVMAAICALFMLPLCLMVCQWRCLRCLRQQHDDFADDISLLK
Outline: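 FRET cleavage by rhBACE1 with substrate at 20 μM final, 60 min at room temperature. Time-resolved fluorescence read at Ex/Em 360/460 nm. IC50 obtained by non-linear regression.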

HepG2 cells = test: HepG2 cytotoxicity assay; assay type: cell-based; settings: Homo sapiens, 72 hours
Experimental: HepG2 cells (ATCC Cat. No. HB-8065) were maintained in DMEM supplemented with 10% fetal bovine serum and L-glutamine. Cells were grown at 37° C. and 5% CO2 on flasks coated with poly-d-lysine. To assess compounds for potential cytotoxic properties cells were plated at 10,000 cells per well on 96-well poly-d-lysine plates at 10,000 cells per well. HepG2 cells were allowed to adhere for at least 4 hours prior to application of test compounds. Cells were incubated with test compounds for 72 hours before measuring cellular viability. Cellular viability was measured using PrestoBlue® Cell Viability Reagent (Life Technologies). Briefly, 11 μL of 10× PrestoBlue reagent was added to 100 μl in each assay well. Cells were incubated at 37° C. and 5% CO2 for 30 minutes prior to reading on Tecan Safire2, excitation at 560 nm, 10 nm bandwidth and emission at 590 nm, 10 nm bandwidth. GraphPad Prism 5.0 (GraphPad Software, Inc., USA) was used to generate IC50 values via non-linear regression analysis.

[2] = RLM metabolic stability assay; assay type: in vitro ADME; settings: pH 7.4, rat liver microsomes, read-out: RLM t1/2
Experimental: (§1) In this protocol, the metabolic stability of compounds at 1 μM was determined in Mouse Liver Microsome (MLM), rat liver microsomes (RLM) or human liver microsomes (HLM). […]. After incubation at 37° C. for a specific time period (0, 5, 10, 20 and 30 min), the reaction was terminated by the addition of 200 μL ice cold acetonitrile containing internal standard (100 ng/mL) after 100 μL aliquots of reaction mixture was removed. The quenched reaction mixtures were centrifuged at 3200 rpm for 5 min, and 100 μL of the supernatant were transferred to 96-well deep plate. The samples in 96 well plate were analyzed by LC-MS/MS using an Applied Biosystems-Sciex model API 3000 mass spectrometer. The data were analyzed using the following equations. […]

[3] = Plasma compound concentration in the in vivo efficacy study; settings: mice; for concentration at 1 h / concentration at 6 h / concentration at 24 h: NIH, mouse, plasma; for concentration at 1 h: 1 h post last dose on Day 3; for concentration at 6 h: 6 h post last dose on Day 3; for concentration at 24 h: 24 h post last dose on Day 3
[4] = HLM metabolic stability assay; assay type: in vitro ADME; settings: pH 7.4, human liver microsomes, read-out: HLM t1/2
Experimental: as §1

[5] = Rat pharmacokinetic (PK) analysis; assay type: in vivo; settings: for half-life: male, SD, plasma, read-out: Rat PK t1/2 (converted)
Experimental: Male SD rats, weighing 180-220 g (Southern China Medical University, China) were utilized for the studies. Animals were maintained on standard animal chow and water ad libitum, in a climate controlled room (23±1° C.), 30-70% relative humidity, a minimum of 10 exchanges of room air per hour and a 12-h light/dark cycle) for one week prior to experiments. The test compound was dissolved in suitable solvent. Pharmacokinetic properties were determined following i.v. and oral administration. Animals were randomly distributed into two experimental groups (n=4). The oral groups were given 5 mg/kg of the test compound by gastric gavage. The other group was dosed by injection into the tail vein (1 mg/kg). […]; 2, 10, 30 min and 1, 2, 3, 4, 6, 8, 11 and 24 h (i.v.). Whole blood samples were collected in heparinized tubes. The plasma fraction was immediately separated by centrifugation (8,000 rpm, 6 min, 4° C.) and stored at −20° C. until LC-MS analysis. The rats were humanely euthanasia by carbon dioxide 24 hours after experiment without pain.
Plasma Sample Analysis. Standard Curve Sample Preparation:
The compound was dissolved in DMSO at a concentration of 2 mg/mL and diluted with 50% methanol solution to series concentration as follow: 20, 50, 100, 500, 1000, 2000, 4000, 6000, 12000, 40000 ng/mL. 10 μL series concentration solution and 50 μL blank plasma were added to 1.5 mL tube and vortex for 3 min, then 150 μL acetonitrile containing internal standard were added and vortex for 5 min, finally spin tube in centrifuge at 16000 g for 40 min at 4° C. Plasma sample preparation: The plasma samples were prepared using protein precipitation method. […] LC/MS/MS analysis: After centrifuge, 100 μL supernatant was transfer to the 96 well plate and analyzed by LC-MS/MS using an Applied Biosystems-Sciex model API 3000 mass spectrometer. The pharmacokinetics parameters were calculated by analyzing the compound concentration in plasma samples using the pharmacokinetic software DAS.2.0.

[6] = MLM metabolic stability assay; assay type: in vitro ADME; settings: pH 7.4, mouse liver microsomes, read-out: MLM t1/2
Experimental: as §1

[7] = 3D7, 48 h, read-out: Pf 3D7 IC50 (μM, 48 hr), 48 hr
[8] = 3D7, 72 h, read-out: Pf 3D7 IC50 (μM, 72 hr), 72 hr
[9] = 3D7, read-out: 3D7 IC50 (μM), Table 13
[10] = 3D7, read-out: Pf3D7 IC50 (μM), Table 10
[11] = 3D7, read-out: Pf 3D7 IC50, Table 8

Compound | IC50 [1, 7] [µM] | IC50 [1, 8] [µM] | IC50 [1, 9] [µM] | IC50 [1, 10] [µM] | IC50 [1, 11] [µM] | IC50 (recombinant human BACE1; Table 8, read-out: BACE IC50) [nM] | IC50 (recombinant human BACE1; Table 13, read-out: BACE1 IC50) [nM] | IC50 (HepG2 cells) [nM] | half-life at 1 μM [2] [min] | concentration at 1 h ([3]; 100 mg/kg, 100 mpk oral) [ng/mL] | concentration at 6 h ([3]; 100 mg/kg, 100 mpk oral) [ng/mL] | concentration at 24 h ([3]; 100 mg/kg, 100 mpk oral) [ng/mL] | half-life at 1 μM [4] [min] | Rat PK oral bioavailability (% F) ([5]; 5 mg/kg oral, 1 mg/kg i.v.) | half-life [5] [min] | concentration at 24 h ([3]; 110 mg/kg, 110 mpk oral) [ng/mL] | Plasma [compound] (ng/mL), determined at 30 min post dose ([3]; 110 mpk oral, 30 min post last dose on Day 3) | half-life at 1 μM [6] [min]
COc1ccc(C2(c3ccc(OC)cc3)NC(=N)N(CC3CCOCC3)C2=O)cc1 [Example 275, 2-imino-5,5-bis(4-methoxyphenyl)-3-(oxan-4-ylmethyl)imidazolidin-4-one] | 0.571 | 0.463 | 0.521 | 0.463 | 0.463 | 2070 | 2070 | 30000 | 35 | 10400 | 3030 | 123 | – | – | – | – | – | –
COc1ccc(C2(c3ccc(OC)cc3)NC(=N)N(C3CCOCC3)C2=O)cc1 [Example 176, 2-imino-5,5-bis(4-methoxyphenyl)-3-(oxan-4-yl)-imidazolidin-4-one] | 0.404 | 0.459 | 0.459 | 0.459 | 0.453 | ~10000 | ~10100 | > 50000 | 83 | – | – | – | 36 | 21 | 66 | 29 | 4140^e ng/mL | –
COc1ccc(C2(c3ccc(OC)cc3)NC(=N)N(C3CCN(C(=O)OC(C)(C)C)CC3)C2=O)cc1 [Example 206, tert-butyl 4-[2-imino-4,4-bis(4-methoxyphenyl)-5-oxoimidazolidin-1-yl]piperidine-1-carboxylate] | 0.339 | 0.383 | 0.436 | 0.436 | 0.383 | 6010 | – | 8000 | 14 | 2520 | 2190 | 7 | – | – | 72 | – | – | 26
